Experimental findings from ChEMBL document CHEMBL3393043, “Computer-aided identification of novel anticancer compounds with a possible dual HER1/HER2 inhibition mechanism” (Bioorg Med Chem Lett, 2015) are described below.

The target in test [1] is T1, Epidermal growth factor receptor (Homo sapiens, UniProt P00533). In words: Inhibition of human full length HER1 assessed as phosphorylation state at 10 uM by ELISA assay. For orientation: In an ELISA, binding on a coated surface is turned into a signal by an enzyme label.
T1 sequence (P00533 whole entry): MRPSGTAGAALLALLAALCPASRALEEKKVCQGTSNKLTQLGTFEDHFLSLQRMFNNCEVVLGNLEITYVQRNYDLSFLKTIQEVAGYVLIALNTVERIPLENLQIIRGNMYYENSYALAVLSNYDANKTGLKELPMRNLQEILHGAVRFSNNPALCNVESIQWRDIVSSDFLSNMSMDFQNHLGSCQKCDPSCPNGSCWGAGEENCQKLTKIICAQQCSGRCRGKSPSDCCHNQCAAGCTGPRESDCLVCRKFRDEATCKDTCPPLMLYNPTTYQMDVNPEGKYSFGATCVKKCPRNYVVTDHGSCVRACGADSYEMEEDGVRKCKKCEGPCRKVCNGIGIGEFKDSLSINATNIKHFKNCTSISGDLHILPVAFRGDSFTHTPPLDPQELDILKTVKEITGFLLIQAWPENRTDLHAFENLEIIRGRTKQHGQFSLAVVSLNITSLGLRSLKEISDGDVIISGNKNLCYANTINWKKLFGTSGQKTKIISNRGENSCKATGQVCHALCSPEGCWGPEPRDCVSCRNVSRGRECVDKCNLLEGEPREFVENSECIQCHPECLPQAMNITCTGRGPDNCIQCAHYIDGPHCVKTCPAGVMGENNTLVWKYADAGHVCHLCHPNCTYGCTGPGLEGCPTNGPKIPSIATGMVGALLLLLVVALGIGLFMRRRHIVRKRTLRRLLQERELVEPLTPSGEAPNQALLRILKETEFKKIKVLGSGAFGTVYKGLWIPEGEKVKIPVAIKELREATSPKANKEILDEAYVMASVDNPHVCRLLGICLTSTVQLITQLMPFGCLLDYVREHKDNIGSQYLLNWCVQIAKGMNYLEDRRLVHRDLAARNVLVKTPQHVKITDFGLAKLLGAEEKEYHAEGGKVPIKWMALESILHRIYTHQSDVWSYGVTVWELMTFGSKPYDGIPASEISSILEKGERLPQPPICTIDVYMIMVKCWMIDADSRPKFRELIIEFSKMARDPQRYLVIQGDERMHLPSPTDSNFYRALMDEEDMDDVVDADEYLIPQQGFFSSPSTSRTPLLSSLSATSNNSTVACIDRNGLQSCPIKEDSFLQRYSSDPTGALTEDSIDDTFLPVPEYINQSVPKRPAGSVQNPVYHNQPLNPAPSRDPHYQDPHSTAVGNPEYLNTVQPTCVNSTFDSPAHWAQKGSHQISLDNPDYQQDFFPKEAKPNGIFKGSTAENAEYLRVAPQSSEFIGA
Test [2] can be described thus: Antiproliferative activity against human SKBR3 cells overexpressing HER2 by MTT assay. In kind it is functional, cell-based. Conditions: SK-BR-3.
Test [3] addresses T2, Receptor tyrosine-protein kinase erbB-2 (Homo sapiens, UniProt P04626). In words: Inhibition of human full length HER2 assessed as phosphorylation state at 10 uM by ELISA assay.
The nature of test [4]: Antiproliferative activity against human BT474 cells overexpressing HER2 by MTT assay. The format is functional, cell-based. The conditions noted are these: BT-474. (Tetrazolium dyes change colour on reduction, which living cells bring about.)
Test [5] is described as follows: Antiproliferative activity against human BT474 cells overexpressing HER2 at 10 uM by MTT assay. In kind it is functional. Conditions: BT-474.
Test [6] is described as follows: Antiproliferative activity against human SKBR3 cells overexpressing HER2 at 10 uM by MTT assay. The format is functional. The conditions noted are these: SK-BR-3.
The target in test [7] is T2, Receptor tyrosine-protein kinase erbB-2. In words: Inhibition of human full length HER2 assessed as phosphorylation state by ELISA assay.
The target in test [8] is T1, Epidermal growth factor receptor. In words: Inhibition of human full length HER1 assessed as phosphorylation state by ELISA assay.

T2 sequence (P04626 whole entry): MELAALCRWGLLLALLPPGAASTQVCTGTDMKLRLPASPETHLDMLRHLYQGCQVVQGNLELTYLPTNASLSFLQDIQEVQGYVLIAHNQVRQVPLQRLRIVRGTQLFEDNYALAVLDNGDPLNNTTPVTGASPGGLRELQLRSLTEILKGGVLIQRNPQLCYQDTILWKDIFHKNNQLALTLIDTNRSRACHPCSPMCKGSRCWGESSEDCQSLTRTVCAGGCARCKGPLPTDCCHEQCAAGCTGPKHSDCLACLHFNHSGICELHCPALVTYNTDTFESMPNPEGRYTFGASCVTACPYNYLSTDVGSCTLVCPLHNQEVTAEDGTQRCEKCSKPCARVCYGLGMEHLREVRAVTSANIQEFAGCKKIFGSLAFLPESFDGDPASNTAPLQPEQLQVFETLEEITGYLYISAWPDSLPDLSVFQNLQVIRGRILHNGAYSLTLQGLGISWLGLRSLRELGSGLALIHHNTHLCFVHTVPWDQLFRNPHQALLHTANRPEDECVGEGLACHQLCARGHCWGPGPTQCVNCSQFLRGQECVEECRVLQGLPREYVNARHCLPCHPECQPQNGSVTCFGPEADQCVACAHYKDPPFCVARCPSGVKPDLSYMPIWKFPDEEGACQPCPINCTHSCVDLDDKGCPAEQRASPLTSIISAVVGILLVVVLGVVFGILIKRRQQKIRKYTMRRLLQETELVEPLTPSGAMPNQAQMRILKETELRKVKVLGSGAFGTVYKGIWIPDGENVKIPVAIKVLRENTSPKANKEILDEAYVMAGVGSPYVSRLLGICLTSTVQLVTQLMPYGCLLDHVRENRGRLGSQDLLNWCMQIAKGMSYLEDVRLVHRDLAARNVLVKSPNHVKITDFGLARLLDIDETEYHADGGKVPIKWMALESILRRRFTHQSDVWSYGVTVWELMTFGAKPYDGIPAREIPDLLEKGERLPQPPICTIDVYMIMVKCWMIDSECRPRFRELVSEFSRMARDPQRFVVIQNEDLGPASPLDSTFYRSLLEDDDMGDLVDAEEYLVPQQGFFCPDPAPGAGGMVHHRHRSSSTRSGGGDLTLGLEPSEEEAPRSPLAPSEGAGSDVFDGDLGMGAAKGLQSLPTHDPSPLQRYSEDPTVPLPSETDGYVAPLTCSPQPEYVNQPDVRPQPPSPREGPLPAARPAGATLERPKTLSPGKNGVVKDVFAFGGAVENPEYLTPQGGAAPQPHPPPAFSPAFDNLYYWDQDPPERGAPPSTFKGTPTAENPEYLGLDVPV

In the case of `Cc1ccc(C(=O)COc2cccc(-c3cnc4ccccc4n3)c2)cc1`, the inhibition – broadly, the percentage by which the read-out fell short of the control – in test [1] turned out to be 83.9%; in test [3], 67%. Moreover, the values for the half-maximal inhibitory concentration (IC50) in test [2] and in test [4] were 3110 nM and 314 nM, respectively. The same compound yielded an inhibition at 10 µM in test [5] of 56.2%.
The corresponding values for `O=[N+]([O-])c1cc(-c2ccc(/C=N/c3nc4ccccn4c3-c3ccco3)o2)ccc1Cl` are 80.5%, 67.1%, 3170 nM, 1100 nM and 77%.
With `Brc1cccc(CNc2ccc(-c3nc4ccccc4o3)cc2)c1`, the inhibition in test [1] is 79.9%; in test [3] it was 73.1%. For the same compound, the IC50 (as a rule, the concentration that gives 50% inhibition) in test [2] came out at 1240 nM; in test [4], 343 nM. For the same compound, the inhibition at 10 µM in test [5] was 51.8%.
`O=C(Cc1c[nH]c2ccccc12)NNC(=S)Nc1cccnc1` gave an inhibition at 10 µM in test [6] of 21.2%.
With `COc1nc(N/N=C/c2ccc(-c3ccc(Cl)c([N+](=O)[O-])c3)o2)nc(N2CCOCC2)n1`, in test [5], at 10 µM the inhibition was 39.8%.
Still for that read-out and setting: the result for `COc1ccccc1OCC(=O)Nc1cccc(-c2nc3ccccc3c(=O)o2)c1` reads 35%.
In the case of `Cc1ccc2c(C)nc(Nc3nc(O)cc(CSc4nnnn4-c4ccccc4)n3)nc2c1`, the figures for the inhibition in test [1] and in test [3] were 83% and 85.8%, respectively. In addition, the IC50 in test [7] is 6.03 µM; in test [2], 1030 nM; in test [4], 755 nM; in test [8], 3.92 µM. In test [5], this compound yielded an inhibition at 10 µM of 72.7%.
In turn, `Cc1nnc2sc(-c3ccc(NCc4ccc(F)cc4)cc3)nn12` came in with an inhibition at 10 µM in test [5] of 51%.
In test [5], `N#Cc1cnn(-c2ccccc2)c1NC(=O)CSc1nnc(-c2ccco2)n1-c1ccc(F)cc1` yielded an inhibition at 10 µM of 9.56%.
As for `Nc1ncn(Cc2ccccc2)c2nc(SCCOc3ccccc3F)nc1-2`, the inhibition in test [1] was determined as 81.8%; in test [3], 72.1%. For the same compound, the half-inhibitory concentration (IC50) in test [2] turned out to be 2260 nM; in test [4], 426 nM. In test [5], this compound registered an inhibition at 10 µM of 61.4%.
In turn, `O=C(COC(=O)c1cc(O)nc2ccccc12)c1ccc2ccccc2c1` had an inhibition at 10 µM in test [5] of 17%.
Still for that read-out and setting: the value for `Cc1ccn2c(C(=O)N/N=C/c3cn(-c4ccccc4)nc3-c3cccs3)c(C)nc2c1` was 48.2%.
The same measure, in the same setting: the value for `c1ccc(-n2nnnc2Oc2cccc(CNCc3ccc4c(c3)OCO4)c2)cc1` was 27.2%.
The compound `O=C(CSc1nc(-c2cccs2)cc(C(F)(F)F)n1)Nc1ccc2c(c1)OCO2` registered an inhibition at 10 µM in test [5] of 47.9%.
As for `CN1C(=O)C(O)(CC(=O)c2cccc(-n3cccc3)c2)c2ccccc21` (configuration not stated), the inhibition at 10 µM in test [5] was 7.25%.
`c1cncc(Nc2nnc(Cc3c[nH]c4ccccc34)o2)c1` showed an inhibition at 10 µM in test [6] of 33.4%.
In the case of `O=C(Cc1c[nH]c2ccccc12)NNC(=S)Nc1ncccc1Br`, the IC50 in test [7] was determined as 12.4 µM; in test [8] it was 8.49 µM. This compound also gave an inhibition at 10 µM in test [6] of 71.5%.
`O=C(CSc1nnc2ccc(-c3ccccc3)nn12)NC(=O)Nc1ccccc1`: the inhibition in test [1] stood at 76.1%; in test [3] it was 75.1%. Besides, the half-maximal inhibitory concentration (IC50) turned out to be 1640 nM in test [2] and 802 nM in test [4]. The compound further returned an inhibition at 10 µM in test [5] of 52.7%.
On to `Brc1cccnc1Nc1nnc(Cc2c[nH]c3ccccc23)o1`, for which the inhibition at 10 µM in test [6] turned out to be 37.2%.
